Assay results as given in the supplement of paper PMC11451515.

Test system: SEM cells
Assay: cell viability relative to DMSO control; higher = less cytotoxic
Settings: 48 h
Outline: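 Cells were incubated for 48 h at 37°C before CellTiter-Glo One luminescence was read. The cells were NOMO1 or SEM (500 cells/well) or P12-Ichikawa (1000 cells/well) leukemia cells, adapted for at least four passages in each medium and seeded in 1536-well plates (5 μl). Dosing used library compounds in DMSO applied by pin over 11 threefold points, 47 μM to 0.79 nM. Viability is the per-plate percentage of DMSO wells, with cell-free wells as background.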

[1] = HPLM + 10% dialyzed FBS, 0.000781 µM
[2] = HPLM + 10% dialyzed FBS, 0.00234 µM
[3] = HPLM + 10% dialyzed FBS, 0.00702 µM
[4] = HPLM + 10% dialyzed FBS, 0.0211 µM
[5] = HPLM + 10% dialyzed FBS, 0.0632 µM
[6] = HPLM + 10% dialyzed FBS, 0.19 µM
[7] = HPLM + 10% dialyzed FBS, 0.569 µM
[8] = HPLM + 10% dialyzed FBS, 1.71 µM
[9] = HPLM + 10% dialyzed FBS, 5.12 µM
[10] = HPLM + 10% dialyzed FBS, 15.4 µM
[11] = HPLM + 10% dialyzed FBS, 46.1 µM
[12] = RPMI 5 mM glucose + 10% FBS, 0.000781 µM
[13] = RPMI 5 mM glucose + 10% FBS, 0.00234 µM
[14] = RPMI 5 mM glucose + 10% FBS, 0.00702 µM
[15] = RPMI 5 mM glucose + 10% FBS, 0.0211 µM
[16] = RPMI 5 mM glucose + 10% FBS, 0.0632 µM
[17] = RPMI 5 mM glucose + 10% FBS, 0.19 µM
[18] = RPMI 5 mM glucose + 10% FBS, 0.569 µM
[19] = RPMI 5 mM glucose + 10% FBS, 1.71 µM
[20] = RPMI 5 mM glucose + 10% FBS, 5.12 µM
[21] = RPMI 5 mM glucose + 10% FBS, 15.4 µM
[22] = RPMI 5 mM glucose + 10% FBS, 46.1 µM
[23] = RPMI 5 mM glucose + 10% dialyzed FBS, 0.000781 µM
[24] = RPMI 5 mM glucose + 10% dialyzed FBS, 0.00234 µM
[25] = RPMI 5 mM glucose + 10% dialyzed FBS, 0.00702 µM
[26] = RPMI 5 mM glucose + 10% dialyzed FBS, 0.0211 µM
[27] = RPMI 5 mM glucose + 10% dialyzed FBS, 0.0632 µM
[28] = RPMI 5 mM glucose + 10% dialyzed FBS, 0.19 µM
[29] = RPMI 5 mM glucose + 10% dialyzed FBS, 0.569 µM
[30] = RPMI 5 mM glucose + 10% dialyzed FBS, 1.71 µM
[31] = RPMI 5 mM glucose + 10% dialyzed FBS, 5.12 µM
[32] = RPMI 5 mM glucose + 10% dialyzed FBS, 15.4 µM
[33] = RPMI 5 mM glucose + 10% dialyzed FBS, 46.1 µM

SMILES	cell viability [1] [%]	cell viability [2] [%]	cell viability [3] [%]	cell viability [4] [%]	cell viability [5] [%]	cell viability [6] [%]	cell viability [7] [%]	cell viability [8] [%]	cell viability [9] [%]	cell viability [10] [%]	cell viability [11] [%]	cell viability [12] [%]	cell viability [13] [%]	cell viability [14] [%]	cell viability [15] [%]	cell viability [16] [%]	cell viability [17] [%]	cell viability [18] [%]	cell viability [19] [%]	cell viability [20] [%]	cell viability [21] [%]	cell viability [22] [%]	cell viability [23] [%]	cell viability [24] [%]	cell viability [25] [%]	cell viability [26] [%]	cell viability [27] [%]	cell viability [28] [%]	cell viability [29] [%]	cell viability [30] [%]	cell viability [31] [%]	cell viability [32] [%]	cell viability [33] [%]
CO[C@H]1C[C@@H]2CC[C@@H](C)[C@@](O)(O2)C(=O)C(=O)N2CCCC[C@H]2C(=O)O[C@H]([C@@H](C)C[C@@H]2CC[C@@H](O)[C@H](OC)C2)CC(=O)[C@H](C)/C=C(\C)[C@@H](O)[C@@H](OC)C(=O)[C@H](C)C[C@H](C)/C=C/C=C/C=C/1C	95.4	95.3	88	83.2	86.9	81.7	81.9	74.2	80.1	79.5	61.3	98.6	84.3	89.4	94.9	80.6	77.3	75.7	80.7	68	70.6	60.6	96.9	87.2	102	85.7	89.8	81.3	85.5	84.4	81.6	81.7	52.6
CCc1nc(N)nc(N)c1-c1ccc(Cl)cc1	89	95	68.1	108	115	106	98.9	63	41	47.6	36.6	77	81.2	63.4	91.9	97.1	99.3	93	87.3	36	93.9	83.6	77.4	92.2	70.5	96.5	98.4	92.4	95.3	101	48.6	85.9	46.6
